Legend:
C-13 cells [1] = assay: MTT cell survival assay, CDDP-resistant C-13 cells; conditions: C-13, increasing amounts of CDDP alone, MTT 24 hr
Experimental: (§1) CDDP-resistant ovarian cancer cell lines A2780CP and C-13 were treated with CDDP at indicated concentrations alone, or in combination with 10 μM API-2. Cell survival was determined 24 hr later by MTT assay.
A2780CP and C-13 cells were treated with increasing amounts of CDDP alone or in combination with 10 μM API-2.

A2780CP cells [2] = assay: MTT cell survival assay, CDDP-resistant A2780CP cells; conditions: increasing amounts of CDDP alone, MTT 24 hr
Experimental: as §1
API-2 was further investigated to determine whether it can overcome CDDP resistance by blocking Akt signaling pathways. A2780CP and C-13 cells were treated with increasing amounts of CDDP alone or in combination with 10 μM API-2.

[3] = tested on: MCF-7 human breast cancer; assay: Cell number growth over six days, MCF-7 cells; assay type: cell-based; conditions: MCF-7, 25 nM RAD001, 5 μM API-2 or combination
Akt phosphorylation = assay: Western blot of MCF-7 lysates for phosphorylated Akt, S6, p70-S6K; assay type: cell-based, human
Experimental: (A) OVCAR-3 human ovarian cancer and (B) MCF-7 human breast cancer cell lines were treated with mTOR inhibitors rapamycin (OVCAR-3 cells only) or RAD001 (MCF-7 cells only). Cell lysates were probed for phosphorylated and total Akt, and phosphorylated and total S6 at the indicated time points. […] Akt substrate FKHRL1, an apoptotic protein, was also detected.
(A) OVCAR-3 and (B) MCF-7 cells were treated with rapamycin (OVCAR-3 cells only), RAD001 (MCF-7 cells only), API-2, or a combination of API-2 with either rapamycin or RAD001. Akt phosphorylation increased in both cell lines after either rapamycin or RAD001 treatment.
Results of Western Blot for phosphorylated Akt (p-Akt) indicate C-13 and A2780CP cells had high levels of p-Akt. Further, cell survivability after chemotherapy appears directly connected to Akt up-regulation as C-13 had both the highest p-Akt and survivability. […] This caused an increase in p-Akt within 1 hour of treatment, confirming a relationship between p-Akt and cell survival after chemotherapy.

A2780CP cells [4] = conditions: drug individually or combination of both drugs
C-13 cells [5] = conditions: C-13, drug individually or combination of both drugs

With `[Cl][Pt+2][Cl].[NH2-].[NH2-]` [CDDP, cis-Diammine-dicholoroplatinum(II)] the “effect on cell survival” value (C-13 cells [1]) was “no significant effect on cell survival” and the “effect on cell survival” value (A2780CP cells [2]) was “no significant effect on cell survival”.

In the case of `CO[C@H]1C[C@@H]2CC[C@@H](C)[C@@](O)(O2)C(=O)C(=O)N2CCCC[C@H]2C(=O)O[C@H]([C@H](C)C[C@@H]2CC[C@@H](OCCO)[C@H](OC)C2)CC(=O)[C@H](C)/C=C(\C)[C@@H](O)[C@@H](OC)C(=O)[C@H](C)C[C@H](C)/C=C/C=C/C=C/1C` [RAD001], the “cell growth (cell numbers)” value [3] is reported as “inhibited cell growth”, the Akt phosphorylation (Akt phosphorylation; MCF-7) is reported as “increased with longer exposure time” and the “phosphorylated S6” value (Akt phosphorylation; MCF-7, indicated time points) is reported as “decreased with exposure”.

`CC(=O)O[C@H]1C(=O)[C@@]2(C)[C@H]([C@H](OC(=O)c3ccccc3)[C@]3(O)C[C@H](OC(=O)[C@H](O)[C@@H](NC(=O)c4ccccc4)c4ccccc4)C(C)=C1C3(C)C)[C@]1(OC(C)=O)CO[C@@H]1C[C@@H]2O` [Taxol] was tested, and the “apoptosis (Capase-Glo 3/7)” value (A2780CP cells [4]) was “increased apoptosis slightly” and the “apoptosis (Capase-Glo 3/7)” value (C-13 cells [5]) was “increased apoptosis slightly”.
